From ChEMBL document CHEMBL2073947, “The human multidrug resistance protein MRP4 functions as a prostaglandin efflux transporter and is inhibited by nonsteroidal antiinflammatory drugs” (Proc Natl Acad Sci U S A, 2003)
Each block holds one molecule with its values, some of them ahead of it.

Key:
[1] = target: T1, ATP-binding cassette sub-family C member 4 (Homo sapiens, UniProt O15439); assay: TP_TRANSPORTER: inhibition of E217betaG in the presence of Indomethacin at a concentration of 50uM in membrane vesicles from MRP4-expressing Sf9 cells; assay type: functional, cell membranes, Membrane vesicle; parameters: scale not given: the % may be the effect or the level left; conditions: sf9, 50 µM
T1 sequence (O15439 whole entry): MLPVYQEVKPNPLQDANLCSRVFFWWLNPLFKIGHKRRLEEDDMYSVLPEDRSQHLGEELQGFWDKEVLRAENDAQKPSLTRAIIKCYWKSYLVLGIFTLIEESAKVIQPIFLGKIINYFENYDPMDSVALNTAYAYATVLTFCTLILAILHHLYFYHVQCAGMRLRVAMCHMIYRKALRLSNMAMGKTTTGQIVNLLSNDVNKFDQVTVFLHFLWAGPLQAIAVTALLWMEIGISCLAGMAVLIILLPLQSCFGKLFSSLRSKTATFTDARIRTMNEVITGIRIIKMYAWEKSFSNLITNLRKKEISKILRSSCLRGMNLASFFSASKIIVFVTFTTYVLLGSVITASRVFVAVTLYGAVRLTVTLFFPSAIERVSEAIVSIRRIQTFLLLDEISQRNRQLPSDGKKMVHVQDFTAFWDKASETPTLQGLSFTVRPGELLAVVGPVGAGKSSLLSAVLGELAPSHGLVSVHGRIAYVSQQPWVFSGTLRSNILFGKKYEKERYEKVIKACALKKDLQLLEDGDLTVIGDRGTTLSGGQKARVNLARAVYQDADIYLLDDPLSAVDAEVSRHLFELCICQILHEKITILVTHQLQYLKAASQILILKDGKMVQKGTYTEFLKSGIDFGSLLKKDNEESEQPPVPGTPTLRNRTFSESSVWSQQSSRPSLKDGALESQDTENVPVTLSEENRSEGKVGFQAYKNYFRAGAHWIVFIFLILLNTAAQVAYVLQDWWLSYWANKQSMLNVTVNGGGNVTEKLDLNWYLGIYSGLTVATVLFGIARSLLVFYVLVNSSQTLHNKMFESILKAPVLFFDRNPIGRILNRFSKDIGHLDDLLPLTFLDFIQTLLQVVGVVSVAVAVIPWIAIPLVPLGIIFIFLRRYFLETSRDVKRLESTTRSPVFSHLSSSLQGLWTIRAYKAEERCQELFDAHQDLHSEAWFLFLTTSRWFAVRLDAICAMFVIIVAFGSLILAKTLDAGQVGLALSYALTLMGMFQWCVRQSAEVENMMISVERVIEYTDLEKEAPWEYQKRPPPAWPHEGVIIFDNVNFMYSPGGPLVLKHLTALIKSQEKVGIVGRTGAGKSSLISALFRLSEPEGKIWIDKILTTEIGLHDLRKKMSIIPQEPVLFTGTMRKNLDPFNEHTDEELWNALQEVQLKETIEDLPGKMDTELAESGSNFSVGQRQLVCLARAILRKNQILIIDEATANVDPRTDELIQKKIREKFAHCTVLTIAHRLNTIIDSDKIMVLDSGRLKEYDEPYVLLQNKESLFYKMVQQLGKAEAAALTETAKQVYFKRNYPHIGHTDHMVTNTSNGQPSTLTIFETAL

[2] = target: Multidrug resistance-associated protein 1 (Homo sapiens, UniProt P33527); assay: TP_TRANSPORTER: inhibition of E217betaG in the presence of Indomethacin at a concentration of 50uM in membrane vesicles from MRP1-expressing Sf9 cells; assay type: functional, cell membranes, Membrane vesicle; parameters: scale not given: the % may be the effect or the level left; conditions: sf9, 50 µM
[3] = target: T2, MRP4 (ATP-binding cassette sub-family C member 4) (Homo sapiens, UniProt O15439); assay: TP_TRANSPORTER: inhibition of E217betaG in the presence of Indoprofen at a concentration of 50uM in membrane vesicles from MRP4-expressing Sf9 cells; assay type: functional, cell membranes, Membrane vesicle; parameters: scale not given: the % may be the effect or the level left; conditions: probe E217betaG, read-out: Activity
T2 sequence (O15439 whole entry): T1 sequence (O15439 whole entry)

[4] = target: T1, ATP-binding cassette sub-family C member 4; assay: TP_TRANSPORTER: inhibition of E217betaG in the presence of Ketoprofen at a concentration of 50uM in membrane vesicles from MRP4-expressing Sf9 cells; assay type: functional, cell membranes, Membrane vesicle; parameters: scale not given: the % may be the effect or the level left; conditions: sf9, 50 µM
[5] = target: T1, ATP-binding cassette sub-family C member 4; assay: TP_TRANSPORTER: inhibition of alaninyl-d4TMP in the presence of Prostaglandin A1 at a concentration of 20uM in membrane vesicles from MRP4-expressing Sf9 cells; assay type: functional, cell membranes, Membrane vesicle; parameters: scale not given: the % may be the effect or the level left; conditions: sf9, 20 µM
[6] = target: MRP5 (ATP-binding cassette sub-family C member 5) (Homo sapiens, UniProt O15440); assay: TP_TRANSPORTER: inhibition of alaninyl-d4TMP by Prostaglandin A1 at a concentration of 20uM in membrane vesicle from MRP5-expressing HEK293 cells; assay type: functional, cell membranes; parameters: scale not given: the % may be the effect or the level left; conditions: probe alaninyl-d4TMP, read-out: Activity
[7] = target: Multidrug resistance associated protein (Homo sapiens) (UniProt Q96QA9); assay: TP_TRANSPORTER: inhibition of alaninyl-d4TMP by Prostaglandin A1 at a concentration of 20uM in membrane vesicle from MRP3-expressing Sf9 cells; assay type: functional, cell membranes; parameters: scale not given: the % may be the effect or the level left
[8] = target: T2, MRP4 (ATP-binding cassette sub-family C member 4); assay: TP_TRANSPORTER: inhibition of alaninyl-d4TMP in the presence of Prostaglandin F1alpha at a concentration of 20uM in membrane vesicles from MRP4-expressing Sf9 cells; assay type: functional, cell membranes, Membrane vesicle; parameters: scale not given: the % may be the effect or the level left; conditions: probe alaninyl-d4TMP, read-out: Activity
[9] = target: T1, ATP-binding cassette sub-family C member 4; assay: TP_TRANSPORTER: inhibition of E217betaG in the presence of Rofecoxib at a concentration of 100uM in membrane vesicles from MRP4-expressing Sf9 cells; assay type: functional, cell membranes, Membrane vesicle; parameters: scale not given: the % may be the effect or the level left; conditions: sf9, 100 µM
[10] = target: ATP-binding cassette sub-family C member 5 (Homo sapiens, UniProt O15440); assay: TP_TRANSPORTER: inhibition of alaninyl-d4TMP by Thromboxane B2 at a concentration of 20uM in membrane vesicle from MRP5-expressing HEK293 cells; assay type: functional, cell membranes; parameters: scale not given: the % may be the effect or the level left; conditions: hek293, 20 µM
[11] = target: MRP1 (Multidrug resistance-associated protein 1) (Homo sapiens, UniProt P33527); assay: TP_TRANSPORTER: inhibition of alaninyl-d4TMP in the presence of Thromboxane B2 at a concentration of 20uM in membrane vesicles from MRP1-expressing Sf9 cells; assay type: functional, cell membranes, Membrane vesicle; parameters: scale not given: the % may be the effect or the level left; conditions: probe alaninyl-d4TMP, read-out: Activity
[12] = target: T2, MRP4 (ATP-binding cassette sub-family C member 4); assay: TP_TRANSPORTER: inhibition of alaninyl-d4TMP in the presence of Thromboxane B2 at a concentration of 20uM in membrane vesicles from MRP4-expressing Sf9 cells; assay type: functional, cell membranes, Membrane vesicle; parameters: scale not given: the % may be the effect or the level left; conditions: probe alaninyl-d4TMP, read-out: Activity
[13] = target: Multidrug resistance associated protein (Homo sapiens) (UniProt Q96QA9); assay: TP_TRANSPORTER: inhibition of alaninyl-d4TMP by Thromboxane B2 at a concentration of 20uM in membrane vesicle from MRP3-expressing Sf9 cells; assay type: functional, cell membranes; parameters: scale not given: the % may be the effect or the level left
[14] = substrate: CCCCC[C@H](O)/C=C/[C@H]1[C@H](O)CC(=O)[C@@H]1C/C=C\CCCC(=O)O; assay: (§1) TP_TRANSPORTER: uptake (vesicle) in membrane vesicles from MRP4-expressing Sf9 cells; assay type: functional, cell membranes
[15] = substrate: CCCCC[C@H](O)/C=C/[C@H]1[C@H](O)CC(=O)[C@@H]1CCCCCCC(=O)O; assay: as §1; assay type: functional, cell membranes

Chain of Multidrug resistance associated protein (Homo sapiens) (Q96QA9 as listed by the source): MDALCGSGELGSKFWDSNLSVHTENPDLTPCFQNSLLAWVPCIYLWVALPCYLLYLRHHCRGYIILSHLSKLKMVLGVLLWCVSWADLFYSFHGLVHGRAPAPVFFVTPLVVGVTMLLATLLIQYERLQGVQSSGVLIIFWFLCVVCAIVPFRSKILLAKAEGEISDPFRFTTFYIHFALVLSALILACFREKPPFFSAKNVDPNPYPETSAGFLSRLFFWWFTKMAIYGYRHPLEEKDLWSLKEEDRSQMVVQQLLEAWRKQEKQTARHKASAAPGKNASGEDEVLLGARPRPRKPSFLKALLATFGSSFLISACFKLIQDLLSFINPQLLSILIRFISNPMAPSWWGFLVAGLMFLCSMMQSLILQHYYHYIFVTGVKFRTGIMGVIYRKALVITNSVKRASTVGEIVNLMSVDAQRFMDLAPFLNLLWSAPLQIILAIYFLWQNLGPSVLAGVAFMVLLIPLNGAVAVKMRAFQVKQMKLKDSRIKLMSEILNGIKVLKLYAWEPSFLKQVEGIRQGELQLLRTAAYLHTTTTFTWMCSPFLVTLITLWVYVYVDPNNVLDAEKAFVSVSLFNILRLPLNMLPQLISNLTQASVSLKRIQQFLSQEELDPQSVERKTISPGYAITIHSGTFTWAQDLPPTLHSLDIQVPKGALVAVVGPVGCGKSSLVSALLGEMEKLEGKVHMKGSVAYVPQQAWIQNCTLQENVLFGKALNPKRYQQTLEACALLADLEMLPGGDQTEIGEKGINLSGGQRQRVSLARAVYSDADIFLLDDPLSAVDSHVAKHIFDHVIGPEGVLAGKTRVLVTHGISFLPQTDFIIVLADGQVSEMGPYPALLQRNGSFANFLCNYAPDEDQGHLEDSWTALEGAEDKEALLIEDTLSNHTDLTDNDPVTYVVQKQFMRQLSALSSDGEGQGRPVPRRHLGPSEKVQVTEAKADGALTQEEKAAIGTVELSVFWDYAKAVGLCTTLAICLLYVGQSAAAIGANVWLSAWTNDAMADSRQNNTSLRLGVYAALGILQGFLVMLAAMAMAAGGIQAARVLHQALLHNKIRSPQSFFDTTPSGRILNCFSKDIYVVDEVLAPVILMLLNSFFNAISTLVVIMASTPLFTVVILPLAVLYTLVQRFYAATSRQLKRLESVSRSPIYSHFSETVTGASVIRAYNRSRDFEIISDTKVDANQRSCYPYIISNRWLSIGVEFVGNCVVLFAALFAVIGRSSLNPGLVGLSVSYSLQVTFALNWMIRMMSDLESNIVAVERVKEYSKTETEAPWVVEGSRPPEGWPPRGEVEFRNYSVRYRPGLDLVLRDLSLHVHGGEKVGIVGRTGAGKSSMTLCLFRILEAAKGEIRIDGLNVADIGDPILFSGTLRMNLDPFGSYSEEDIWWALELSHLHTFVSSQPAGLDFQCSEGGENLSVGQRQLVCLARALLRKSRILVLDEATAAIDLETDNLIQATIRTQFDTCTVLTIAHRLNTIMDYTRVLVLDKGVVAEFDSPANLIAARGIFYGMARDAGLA
Chain of MRP1 (Multidrug resistance-associated protein 1) (P33527 whole entry): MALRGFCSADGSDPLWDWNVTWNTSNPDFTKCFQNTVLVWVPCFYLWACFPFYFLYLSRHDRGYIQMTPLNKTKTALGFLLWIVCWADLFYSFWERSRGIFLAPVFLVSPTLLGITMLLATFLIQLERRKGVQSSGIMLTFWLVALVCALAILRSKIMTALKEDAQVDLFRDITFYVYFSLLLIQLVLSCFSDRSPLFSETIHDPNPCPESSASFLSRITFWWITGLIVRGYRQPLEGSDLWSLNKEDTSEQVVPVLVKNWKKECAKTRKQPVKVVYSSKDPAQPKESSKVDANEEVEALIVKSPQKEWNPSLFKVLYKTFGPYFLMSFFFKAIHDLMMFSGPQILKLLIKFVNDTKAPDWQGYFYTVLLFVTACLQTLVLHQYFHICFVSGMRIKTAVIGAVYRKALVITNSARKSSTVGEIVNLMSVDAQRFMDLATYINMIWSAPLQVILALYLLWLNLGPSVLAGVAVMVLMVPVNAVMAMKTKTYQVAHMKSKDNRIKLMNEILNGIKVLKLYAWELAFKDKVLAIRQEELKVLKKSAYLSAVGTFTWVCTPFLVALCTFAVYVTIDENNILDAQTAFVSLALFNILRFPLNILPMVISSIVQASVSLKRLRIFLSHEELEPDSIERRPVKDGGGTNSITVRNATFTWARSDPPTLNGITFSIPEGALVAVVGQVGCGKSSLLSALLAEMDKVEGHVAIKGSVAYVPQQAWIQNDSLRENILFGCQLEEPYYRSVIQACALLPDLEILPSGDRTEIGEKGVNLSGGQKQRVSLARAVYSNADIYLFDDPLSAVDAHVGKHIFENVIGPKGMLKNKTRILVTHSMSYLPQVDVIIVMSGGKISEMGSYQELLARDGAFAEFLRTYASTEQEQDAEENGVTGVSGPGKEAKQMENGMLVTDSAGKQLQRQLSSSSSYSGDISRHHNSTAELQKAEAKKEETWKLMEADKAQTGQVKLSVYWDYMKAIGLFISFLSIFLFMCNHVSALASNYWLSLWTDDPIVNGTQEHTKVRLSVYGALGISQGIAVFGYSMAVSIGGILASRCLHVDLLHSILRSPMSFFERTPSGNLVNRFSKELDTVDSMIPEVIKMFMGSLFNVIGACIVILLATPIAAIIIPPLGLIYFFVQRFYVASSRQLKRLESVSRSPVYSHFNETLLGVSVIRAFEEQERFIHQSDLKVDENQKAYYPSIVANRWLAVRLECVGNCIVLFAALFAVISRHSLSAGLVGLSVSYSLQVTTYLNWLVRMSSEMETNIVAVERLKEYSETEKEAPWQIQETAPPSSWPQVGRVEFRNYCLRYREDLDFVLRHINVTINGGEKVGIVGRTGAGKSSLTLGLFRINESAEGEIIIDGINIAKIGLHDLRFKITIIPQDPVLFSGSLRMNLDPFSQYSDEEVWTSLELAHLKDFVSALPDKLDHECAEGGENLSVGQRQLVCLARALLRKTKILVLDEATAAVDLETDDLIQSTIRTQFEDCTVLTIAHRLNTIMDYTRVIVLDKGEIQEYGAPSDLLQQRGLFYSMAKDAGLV
Chain of Multidrug resistance-associated protein 1 (P33527 whole entry): as above
Chain of MRP5 (ATP-binding cassette sub-family C member 5) (O15440 whole entry): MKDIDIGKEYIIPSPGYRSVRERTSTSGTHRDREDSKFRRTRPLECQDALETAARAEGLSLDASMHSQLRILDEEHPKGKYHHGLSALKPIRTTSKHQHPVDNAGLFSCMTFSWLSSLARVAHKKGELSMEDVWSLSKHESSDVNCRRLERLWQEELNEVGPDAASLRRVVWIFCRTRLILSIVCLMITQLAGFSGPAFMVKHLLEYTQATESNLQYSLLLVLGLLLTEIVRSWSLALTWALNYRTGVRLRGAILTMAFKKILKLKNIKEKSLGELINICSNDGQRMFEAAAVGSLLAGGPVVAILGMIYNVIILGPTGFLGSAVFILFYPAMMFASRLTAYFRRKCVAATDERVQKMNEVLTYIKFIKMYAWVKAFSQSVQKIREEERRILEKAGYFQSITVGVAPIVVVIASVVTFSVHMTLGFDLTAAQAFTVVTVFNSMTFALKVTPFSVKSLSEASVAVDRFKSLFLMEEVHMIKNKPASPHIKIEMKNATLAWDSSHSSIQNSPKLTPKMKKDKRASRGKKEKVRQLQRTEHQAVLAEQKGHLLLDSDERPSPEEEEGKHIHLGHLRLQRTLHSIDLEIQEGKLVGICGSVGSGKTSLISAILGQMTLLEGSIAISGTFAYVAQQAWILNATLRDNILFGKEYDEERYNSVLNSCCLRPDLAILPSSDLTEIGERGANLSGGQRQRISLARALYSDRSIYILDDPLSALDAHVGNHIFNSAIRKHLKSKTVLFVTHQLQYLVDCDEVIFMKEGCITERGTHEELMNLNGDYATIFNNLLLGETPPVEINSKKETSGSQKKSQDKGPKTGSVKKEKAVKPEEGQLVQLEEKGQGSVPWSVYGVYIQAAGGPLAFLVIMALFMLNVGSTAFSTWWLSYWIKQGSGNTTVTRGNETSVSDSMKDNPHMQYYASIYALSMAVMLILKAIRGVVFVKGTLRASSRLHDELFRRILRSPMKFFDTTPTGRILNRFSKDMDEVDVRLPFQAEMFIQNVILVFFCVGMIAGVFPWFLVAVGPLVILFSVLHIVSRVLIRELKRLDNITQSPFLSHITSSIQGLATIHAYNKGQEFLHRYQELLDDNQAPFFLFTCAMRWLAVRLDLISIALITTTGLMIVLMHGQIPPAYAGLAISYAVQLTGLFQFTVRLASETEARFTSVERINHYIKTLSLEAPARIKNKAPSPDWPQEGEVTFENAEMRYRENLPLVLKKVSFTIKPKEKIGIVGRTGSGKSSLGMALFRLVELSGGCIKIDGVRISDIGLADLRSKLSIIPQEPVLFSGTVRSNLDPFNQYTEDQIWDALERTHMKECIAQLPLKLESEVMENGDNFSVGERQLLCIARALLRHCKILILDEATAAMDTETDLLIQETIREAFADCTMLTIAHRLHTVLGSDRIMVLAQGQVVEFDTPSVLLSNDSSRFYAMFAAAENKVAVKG

Activity [5]: 2%
activity at 20 µM [6]: 51%
Activity [7]: 76%
Molecule: CCCCC[C@H](O)/C=C/[C@H]1C=CC(=O)[C@@H]1CCCCCCC(=O)O [PROSTAGLANDIN A1]

Activity [10]: 77%
activity at 20 µM [11]: 66%
activity at 20 µM [12]: 29%
Activity [13]: 76%
Molecule: CCCCC[C@H](O)/C=C/[C@H]1OC(O)C[C@H](O)[C@@H]1C/C=C\CCCC(=O)O (stereo not given in full) [THROMBOXANE B2]

Second part, the molecule before the results:

Molecule: COc1ccc2c(c1)c(CC(=O)O)c(C)n2C(=O)c1ccc(Cl)cc1 [INDOMETHACIN]
Activity [1]: 11%
Activity [2]: 56%

Molecule: CC(C(=O)O)c1ccc(N2Cc3ccccc3C2=O)cc1 (stereo not given) [INDOPROFEN]
activity at 50 µM [3]: 17%

Molecule: CC(C(=O)O)c1cccc(C(=O)c2ccccc2)c1 (stereo not given) [KETOPROFEN]
Activity [4]: 35%

Molecule: CCCCC[C@H](O)/C=C/[C@@H]1[C@@H](CCCCCCC(=O)O)[C@@H](O)C[C@H]1O [PROSTAGLANDIN F1ALPHA]
activity at 20 µM [8]: 29%

Molecule: CS(=O)(=O)c1ccc(C2=C(c3ccccc3)C(=O)OC2)cc1 [ROFECOXIB]
Activity [9]: 80%

B1: ATP-binding cassette sub-family C member 4 (Homo sapiens) (protein)
chain: T1 sequence (O15439 whole entry)
Km [14]: 3.4 µM
Km [15]: 2.1 µM
